Measured values reported in patent US11213563B2, “Polypeptide and use thereof” (Genoimmune Therapeutics Co., Ltd., priority 2016, dated 2022).

Tests used:
CD8^+ T cells [1] = test: IFN-γ ELISPOT of CD8+ T cell immune response activated by polypeptide; type: cell-based, human; conditions: for Conclusion (immunogenicity): ELISPOT spot ratio >2 criterion; for Number of spots produced by mutant polypeptide or each of its variants / Number of spots produced by wild-type polypeptide: IFN-γ ELISPOT, T cells activated by the listed polypeptide; for Number of spots produced by mutant polypeptide or each of its variants: T2 cells loaded with mutant polypeptide; for Number of spots produced by wild-type polypeptide: T2 cells loaded with wild-type polypeptide FILDGSYSV; for Ratio of mutant polypeptide to wild-type polypeptide: spot number ratio, >2 indicates immunogenicity
Excerpt: The mutant polypeptide with immunogenicity should meet the following requirement:
Spots number of mutant polypeptide/spots number of wild-type polypeptide>2,
After specifically recognizing the complex of HLA-A0201 and the mutant polypeptide, the polypeptide specific-CD8^+T cell is activated and secretes IFN-γ, which will be captured by the firstly antibody coated on the ELISPOT plate and further be bound by an enzyme-coupled secondly antibody, and finally developed by addition of a substrate which can be catalyzed by the enzyme, thus forming colored spots. The number of spots produced represents the number of the IFN-γ secreted by the activated CD8^+T cell.

T2 cells = test: LDH release assay of CD8+ T cell killing activity; type: cell-based, human; set-up: Killing efficiency: concentration or dose not given beside the values; conditions: for Killing efficiency: 4 hours; for Killing of T2 cells loaded with the mutant polypeptide by activated T cells / Killing of T2 cells loaded with the wild-type polypeptide by activated T cells: ratio of effector cells to target cells of 1:1 or 1:10 (so in the source)
Method: The mixture of cells collected in the example 3 were incubated with the T2 cells loaded with the mutant polypeptide (depicted in […], SEQ ID NO:1) or the wild-type polypeptide (depicted in […], SEQ ID NO:7), or the T2 cells without polypeptide respectively for 4 hours; after which […], cell supernatant collected from each well was individually added into 50 μL substrate mixture of LDH for catalyzation of the LDH substrate, and the absorbance at wavelengths of 490 nm and 680 nm (as a reference) is measured, where a maximum release well, a volume correction well, a medium alone well, a spontaneous release well of effector cell and a spontaneous release well of target well as different control wells, as well effector cells (T cells) and target cells (T2 cell) in different ratios as experiment wells are set in triplicate.
The killing efficiency of CD8^+ T cells to T2 cells is calculated by the following formula: Killing efficiency (%)=(experiment well−spontaneous release well of effector cell−spontaneous release well of target well+medium alone well)/(maximum release well of target well-volume correction well-spontaneous release well of target well+medium alone well)×100%.

[2] = system: human non-small cell lung adenocarcinoma cell line H2087-polypeptide FILDGLYSV; test: Lentivirus-infected DCs vaccine in subcutaneous tumor-modeled NOD/SCID mice; type: in vivo; conditions: DCs infected with lentivirus expressing the polypeptide, intracutaneous, 2 injections; vs wild-type lentivirus DCs
Method: After isolated with Ficoll solution from 600 to 900 ml anticoagulant peripheral blood from a healthy volunteer, the collected PBMCs in a concentration of 2×10^7 cells/0.5 ml were intraperitoneally injected into each of 300 NOD SCID mice without immune leakage, so as to reconstruct a human immune system in the NOD SCID mice, with the mice after 4 weeks selected for subsequent inoculation of the human non-small cell lung adenocarcinoma cell line H2087-polypeptide […] obtained in 6.2.
The human non-small cell lung adenocarcinoma cell line H2087-polypeptide […] (SEQ ID NO:1) obtained in 6.2 was incubated in DMEM medium containing 10% fetal calf serum, 100 U/mL penicillin and 100 U/mL streptomycin in an incubator under 37° C. and 5% CO2, and then the cells were centrifuged at 3000 rpm for collection. The collected cells were washed with sterile physiological saline three times, and then diluted appropriately. To 40 μl tumor cell suspension, 10 μl 0.4% […] was added for staining, subsequently the tumor cell suspension in a concentration of 1×10^8 cells/ml was prepared after counting under microscope. 100 μl of the tumor cell suspension was inoculated into each of the NOD/SCID mice by subcutaneous injection at 4 weeks post immune reconstruction in 6.3, with daily observation of the presence/absence of infection at inoculation sites, the increase/decrease of tumor size (in the case of presence of a tumor), and measurement of the major axis (a) and the minor axis (b) of a tumor by a vernier caliper every 2 or 3 days (where the tumor size=a×b×b/2). After 7 days from inoculation, a tumor in a size of rice grain was touchable at the inoculation site. After that, the subcutaneous tumor-modeled NOD/SCID mice (modeled with H2087-polypeptide […] (SEQ ID NO:1)) were treated with a polypeptide+complete Freund's adjuvant vaccine, a polypeptide+DCs vaccine, a lentivirus-infected DCs vaccine and a DC-CTL vaccine respectively, with the tumor size and mouse survival rate observed and recorded every 2 days.
Peripheral blood mononuclear cells (PBMCs) in 100 to 150 mL anticoagulant peripheral blood obtained from a healthy volunteer were isolated with Ficoll solution. After the collected PBMCs were incubated at 37° C. for 2 hours and the non-adherent PBLs were removed, the adherent monocytes were cultured in the presence of recombinant human granulocyte macrophage colony stimulating factor (rhGM-CSF) and recombinant human interleukin-4 (rhIL-4). […] After 24 hours' incubation, the collected cells with lentivirus-containing medium removed were again incubated in a fresh medium containing 50 ng/ml rhIL-4, 100 ng/ml rh GM-CSF, 100 U/ml IFN-γ and 100 U/ml CD40L in an incubator under 37° C. and 5% CO2 for 48 to 72 hours, so as to induce mature DCs, and then the DCs infected with lentivirus were observed under the fluorescence microscope. The collected mature DCs were washed with physiological saline three times and diluted with the physiological saline to a concentration of (4.0±0.5)×10^7 cells/ml for use. The subcutaneous tumor-modeled NOD/SCID mice obtained in 6.4 of the example 6 were randomly divided into seven groups as below, with 6 mice per group.
The vital signs of the mice were observed after administration, and the major axis (a) and the minor axis (b) of a tumor were measured by a vernier caliper every 2 days for calculation of tumor size according to a formula of a×b×b/2, with the weight change and survival rate observed and recorded.

CD8^+ T cells [3] = test: In vitro stimulation of CD8+ T cells by polypeptide-loaded mature DCs, cell counting; type: cell-based, human; conditions: CD8+ T cells with polypeptide-specific mature DCs, day 10; 2.5 × 10^6 cells before incubation
Method: Peripheral blood mononuclear cells (PBMCs) in 100 mL peripheral blood obtained from a HLA-A0201-positive healthy volunteer were isolated using the Ficoll solution, where CD8^+ T cells among the PBMCs were isolated with CD8 magnetic beads, and monocytes among the PBMCs were incubated by an adherence method.
The CD8^+ T cells from the volunteer in a well were incubated with the mature DCs obtained, along with IL-21, with addition of IL-2 and IL-7 after 3 days' culture and addition IL-2 and IL-7 again at day 5 and day 7 respectively, after which the collected mixture of cells were counted on day 10, for use in the next enzyme-linked immune-spot assay (ELISPOT) and lactate dehydrogenase (LDH) assay.

[4] = T cells activated by listed polypeptide + T2 cells loaded with mutant FILDGLYSV, effector:target 1:1
[5] = T cells activated by listed polypeptide + T2 cells loaded with mutant FILDGLYSV, effector:target 10:1
[6] = T cells activated by listed polypeptide + T2 cells loaded with wild-type FILDGSYSV, effector:target 1:1
[7] = T cells activated by listed polypeptide + T2 cells loaded with wild-type FILDGSYSV, effector:target 10:1

FILDGLYSL [mutant polypeptide's variant, Leucine at position 9]
Conclusion (immunogenicity) (CD8^+ T cells [1]): immunogenic
Number of spots produced by mutant polypeptide or each of its variants (CD8^+ T cells [1]): 313
Number of spots produced by wild-type polypeptide (CD8^+ T cells [1]): 37
Ratio of mutant polypeptide to wild-type polypeptide (CD8^+ T cells [1]): 8.46
Killing efficiency (T2 cells; [4]): 8.09%
Killing efficiency (T2 cells; [5]): 38.60%
Killing efficiency (T2 cells; [6]): 3.12%
Killing efficiency (T2 cells; [7]): 4.71%
Killing of T2 cells loaded with the mutant polypeptide by activated T cells (T2 cells): capable of killing
Killing of T2 cells loaded with the wild-type polypeptide by activated T cells (T2 cells): could not kill
Mouse survival period [2]: prolonging mouse survival period effectively
Tumor growth [2]: inhibiting tumor growth
Total number of cells in the well after incubation (CD8^+ T cells [3]): 1.35 × 10^7

FILDGLYSV [mutant polypeptide from COL21A1, Serine at position 45 mutated into Leucine]
Conclusion (immunogenicity) (CD8^+ T cells [1]): immunogenic
Number of spots produced by mutant polypeptide or each of its variants (CD8^+ T cells [1]): 296
Number of spots produced by wild-type polypeptide (CD8^+ T cells [1]): 29
Ratio of mutant polypeptide to wild-type polypeptide (CD8^+ T cells [1]): 10.2
Killing efficiency (T2 cells; [4]): 7.33%
Killing efficiency (T2 cells; [5]): 37.39%
Killing efficiency (T2 cells; [6]): 2.07%
Killing efficiency (T2 cells; [7]): 4.93%
Killing of T2 cells loaded with the mutant polypeptide by activated T cells (T2 cells): capable of killing
Killing of T2 cells loaded with the wild-type polypeptide by activated T cells (T2 cells): could not kill
Mouse survival period [2]: prolonging mouse survival period effectively
Tumor growth [2]: inhibiting tumor growth
Total number of cells in the well after incubation (CD8^+ T cells [3]): 1.22 × 10^7

FLLDGLYSL [mutant polypeptide's variant, Leucine at positions 2 and 9]
Conclusion (immunogenicity) (CD8^+ T cells [1]): immunogenic
Number of spots produced by mutant polypeptide or each of its variants (CD8^+ T cells [1]): 279
Number of spots produced by wild-type polypeptide (CD8^+ T cells [1]): 24
Ratio of mutant polypeptide to wild-type polypeptide (CD8^+ T cells [1]): 11.62
Killing efficiency (T2 cells; [4]): 7.05%
Killing efficiency (T2 cells; [5]): 35.15%
Killing efficiency (T2 cells; [6]): 3.56%
Killing efficiency (T2 cells; [7]): 6.21%
Killing of T2 cells loaded with the mutant polypeptide by activated T cells (T2 cells): capable of killing
Killing of T2 cells loaded with the wild-type polypeptide by activated T cells (T2 cells): could not kill
Mouse survival period [2]: prolonging mouse survival period effectively
Tumor growth [2]: inhibiting tumor growth
Total number of cells in the well after incubation (CD8^+ T cells [3]): 1.03 × 10^7

FLLDGLYSV [mutant polypeptide's variant, Leucine at position 2]
Conclusion (immunogenicity) (CD8^+ T cells [1]): immunogenic
Number of spots produced by mutant polypeptide or each of its variants (CD8^+ T cells [1]): 301
Number of spots produced by wild-type polypeptide (CD8^+ T cells [1]): 42
Ratio of mutant polypeptide to wild-type polypeptide (CD8^+ T cells [1]): 7.17
Killing efficiency (T2 cells; [4]): 8.38%
Killing efficiency (T2 cells; [5]): 39.16%
Killing efficiency (T2 cells; [6]): 2.85%
Killing efficiency (T2 cells; [7]): 5.43%
Killing of T2 cells loaded with the mutant polypeptide by activated T cells (T2 cells): capable of killing
Killing of T2 cells loaded with the wild-type polypeptide by activated T cells (T2 cells): could not kill
Mouse survival period [2]: prolonging mouse survival period effectively
Tumor growth [2]: inhibiting tumor growth
Total number of cells in the well after incubation (CD8^+ T cells [3]): 1.42 × 10^7

FMLDGLYSL
Conclusion (immunogenicity) (CD8^+ T cells [1]): immunogenic
Number of spots produced by mutant polypeptide or each of its variants (CD8^+ T cells [1]): 319
Number of spots produced by wild-type polypeptide (CD8^+ T cells [1]): 35
Ratio of mutant polypeptide to wild-type polypeptide (CD8^+ T cells [1]): 9.11
Killing efficiency (T2 cells; [4]): 8.96%
Killing efficiency (T2 cells; [5]): 40.13%
Killing efficiency (T2 cells; [6]): 3.13%
Killing efficiency (T2 cells; [7]): 5.83%
Killing of T2 cells loaded with the mutant polypeptide by activated T cells (T2 cells): capable of killing
Killing of T2 cells loaded with the wild-type polypeptide by activated T cells (T2 cells): could not kill
Mouse survival period [2]: prolonging mouse survival period effectively
Tumor growth [2]: inhibiting tumor growth
Total number of cells in the well after incubation (CD8^+ T cells [3]): 1.66 × 10^7

FMLDGLYSV
Conclusion (immunogenicity) (CD8^+ T cells [1]): immunogenic
Number of spots produced by mutant polypeptide or each of its variants (CD8^+ T cells [1]): 335
Number of spots produced by wild-type polypeptide (CD8^+ T cells [1]): 50
Ratio of mutant polypeptide to wild-type polypeptide (CD8^+ T cells [1]): 6.7
Killing efficiency (T2 cells; [4]): 9.15%
Killing efficiency (T2 cells; [5]): 42.10%
Killing efficiency (T2 cells; [6]): 2.37%
Killing efficiency (T2 cells; [7]): 5.63%
Killing of T2 cells loaded with the mutant polypeptide by activated T cells (T2 cells): capable of killing
Killing of T2 cells loaded with the wild-type polypeptide by activated T cells (T2 cells): could not kill
Mouse survival period [2]: prolonging mouse survival period effectively
Tumor growth [2]: inhibiting tumor growth
Total number of cells in the well after incubation (CD8^+ T cells [3]): 1.71 × 10^7
